The record followed here is patent publication US20250145585A1, “HETEROCYCLIC INHIBITORS OF IGF-1R FOR TREATMENT OF DISEASE” (HORIZON THERAPEUTICS IRELAND DAC, priority 2023, published 2025).

Assay [1] concerns the target T1, IGF-1R (Homo sapiens, UniProt P08069).
T1 construct: expressed in transfected cells
Description: Example B-1: IGF-1R Assay (PC3 cells stimulated with IGF1, AlphaLISA on cell lysates). The settings on record: compound two hours, IGF1 200 ng/mL for 30 min, read-out: IC50, Biological Activity against IGF-1R (Table B1). It counts as cell-based. The procedure: 50K PC3 cells were seeded on day 1 in 50 μL of media in 96-well plate and incubated overnight at 37° C., 5% CO2. On day 2, all cells were expected to be at 80-90% confluency. Cells were starved for two hours by changing the media to 90 μL of EMEM serum-free media and incubated for 2 hours. Next, cells were treated with 10 μL of 10× concentrated and 3× serially diluted compounds for two hours. It makes 1× of compounds in 100 μL media. This was followed by stimulation of cells with 11×IGF1 for 30 min in 10 μL of serum-free EMEM media at the final concentration of 200 ng/mL.
The media was removed and replaced by 50 μL of 1× lysis buffer from the AlphaLISA kit (with 1× of cOmplete™ protease inhibitor). The plates were sealed, and cells were allowed to lyse for 10 min in the shaker before storing the plate at −20° C. until used. The AlphaLISA assay with processed cell lysates were performed as described in the protocol. Briefly, 10 μL of the undiluted sample were loaded to 384 well Optiplates and 5 μL of the acceptor mix (as described in the AlphaLISA kit) was added to each well. The plates were sealed and briefly vortexed followed by the incubation at RT for 3 hours. In the dark, 5 μL of donor mix was added to each well. All plates were sealed and stored at RT overnight. The plates were read in EnVision reader using standard AlphaLISA settings.
Compound activity was analyzed using CBIS data analysis suite (Cheminnovation, CA). Percentage inhibition was calculated using the following formula: % I-hibition=100%×(1−(mea−RLU of test sample−mean RLU of vehicle control)/(mean-RLU of EC80 control−mean RLU of vehicle control)). The activity for representative examples of the invention is shown in the following table, wherein A: IC50≤500 nM; B: 500 nM<IC50≤2 μM; C: 2 μM<IC50≤10 μM; D: IC50>10 μM.
For orientation: Bead proximity is the source of the signal in Alpha formats.

Assay [2] addresses T1, IGF-1R. Nature of the assay: Example B-2: IGF-1R Assay (PathHunter cell lines, EC80 agonist challenge, chemiluminescent detection). Conditions: PathHunter cells, compound 60 minutes at 37° C., EC80 agonist 3 hours; read-out: IC50, Biological Activity against IGF-1R (Table B2). It counts as cell-based. The method, boiled down:
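PathHunter cells were pre-incubated with compound for 60 min at 37° C (1% vehicle), then challenged with EC80 agonist for 3 h at room temperature. Chemiluminescent detection after 1 h gave % inhibition relative to EC80 and vehicle controls, from which IC50 was derived.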

T1 sequence (P08069 31-1367): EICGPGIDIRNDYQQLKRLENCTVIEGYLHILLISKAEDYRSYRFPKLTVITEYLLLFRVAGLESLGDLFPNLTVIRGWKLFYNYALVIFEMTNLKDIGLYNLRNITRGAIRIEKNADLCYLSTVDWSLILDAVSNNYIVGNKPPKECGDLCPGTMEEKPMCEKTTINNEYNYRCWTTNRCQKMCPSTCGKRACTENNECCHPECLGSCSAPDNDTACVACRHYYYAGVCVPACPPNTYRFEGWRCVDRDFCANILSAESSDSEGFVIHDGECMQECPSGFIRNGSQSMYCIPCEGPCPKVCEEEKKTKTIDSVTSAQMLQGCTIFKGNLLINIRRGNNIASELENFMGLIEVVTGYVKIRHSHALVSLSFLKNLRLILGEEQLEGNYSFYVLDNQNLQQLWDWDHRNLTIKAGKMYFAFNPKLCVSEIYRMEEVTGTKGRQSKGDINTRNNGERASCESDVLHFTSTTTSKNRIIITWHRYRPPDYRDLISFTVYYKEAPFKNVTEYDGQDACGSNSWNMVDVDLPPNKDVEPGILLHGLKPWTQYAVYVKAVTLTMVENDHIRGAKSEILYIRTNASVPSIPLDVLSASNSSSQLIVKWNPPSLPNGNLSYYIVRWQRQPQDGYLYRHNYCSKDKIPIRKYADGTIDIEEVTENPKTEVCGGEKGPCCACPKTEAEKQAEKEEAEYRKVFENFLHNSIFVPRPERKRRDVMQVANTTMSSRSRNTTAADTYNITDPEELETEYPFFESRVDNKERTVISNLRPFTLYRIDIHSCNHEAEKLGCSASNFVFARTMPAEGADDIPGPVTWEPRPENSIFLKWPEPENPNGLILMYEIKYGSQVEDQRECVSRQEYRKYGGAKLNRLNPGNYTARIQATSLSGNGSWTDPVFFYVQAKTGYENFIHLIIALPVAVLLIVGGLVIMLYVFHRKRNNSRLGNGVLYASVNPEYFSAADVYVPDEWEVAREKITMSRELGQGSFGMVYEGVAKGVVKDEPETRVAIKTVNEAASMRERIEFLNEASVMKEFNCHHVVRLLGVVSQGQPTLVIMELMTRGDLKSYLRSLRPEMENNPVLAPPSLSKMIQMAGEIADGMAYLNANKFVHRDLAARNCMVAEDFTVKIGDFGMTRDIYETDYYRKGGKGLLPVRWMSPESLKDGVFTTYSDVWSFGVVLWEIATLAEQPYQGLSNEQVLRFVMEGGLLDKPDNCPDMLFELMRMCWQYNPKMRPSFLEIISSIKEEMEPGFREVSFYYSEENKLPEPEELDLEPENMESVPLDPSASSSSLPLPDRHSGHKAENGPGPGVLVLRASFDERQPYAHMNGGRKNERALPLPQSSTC

The term IC50 denotes the point on the concentration scale where inhibition reaches its midpoint. On to “5,5-dimethyl-1-((2-((2-methyl- 3-oxoisoindolin-5- yl)amino)pyridin-4-yl)methyl)- 3-(4- ((trifluoromethyl)thio)phenyl) amidazolidine-2,4-dione [Compound 272]”, for which, in assay [1], the half-maximal inhibitory concentration (IC50) was at most 500 nM.
On to `CC1(C)C(=O)N(c2ccc(SC(F)(F)F)cc2)C(=O)N1Cc1ccnc2[nH]cnc12` [Compound 2, 1-((3H-imidazo[4,5-b]pyridin-7-yl)methyl)-5,5-dimethyl-3-(4-((trifluoromethyl)thio)phenyl)imidazolidine-2,4-dione], for which, in assay [1], the half-inhibitory concentration (IC50) is at most 500 nM.
On the same count and under the same terms, to `CC1(C)C(=O)N(c2ccc(SC(F)(F)F)cc2)C(=O)N1Cc1ncnc2[nH]ccc12` [Compound 3, 1-((7H-pyrrolo[2,3-d]pyrimidin-4-yl)methyl)-5,5-dimethyl-3-(4-((trifluoromethyl)thio)phenyl)imidazolidine-2,4-dione] belongs at most 500 nM.
Same read-out and setting: to `CC(C)(C)c1ccc(N2C(=O)N(Cc3ccnc4[nH]ccc34)C(C)(C)C2=O)cc1` [Compound 4] belongs at most 500 nM; to `CC1(C)C(=O)N(c2ccc(SC(F)(F)F)cc2)C(=O)N1Cc1ccnc2[nH]cc(Cl)c12` [Compound 5, 1-((3-chloro-1H-pyrrolo[2,3-b]pyridin-4-yl)methyl)-5,5-dimethyl-3-(4-((trifluoromethyl)thio)phenyl)imidazolidine-2,4-dione], at most 500 nM; to `CC(C)(C)c1ccc(N2C(=O)N(Cc3ccnc4[nH]cc(Cl)c34)C(C)(C)C2=O)cc1` [Compound 6, 3-(4-(tert-butyl)phenyl)-1-((3-chloro-1H-pyrrolo[2,3-b]pyridin-4-yl)methyl)-5,5-dimethylimidazolidine-2,4-dione], at most 500 nM.
Still for that read-out and setting: to `CC1(C)C(=O)N(c2ccc(C3(C(F)(F)F)CC3)cc2)C(=O)N1Cc1ccnc2[nH]ccc12` [Compound 7, 1-((1H-pyrrolo[2,3-b]pyridin-4-yl)methyl)-5,5-dimethyl-3-(4-(1-(trifluoromethyl)cyclopropyl)phenyl)imidazolidine-2,4-dione] belongs at most 500 nM; to `CC1(C)C(=O)N(c2ccc(C3(C(F)(F)F)CC3)cc2)C(=O)N1Cc1ccnc2[nH]cc(Br)c12` [Compound 8, 1-((3-bromo-1H-pyrrolo[2,3-b]pyridin-4-yl)methyl)-5,5-dimethyl-3-(4-(1-(trifluoromethyl)cyclopropyl)phenyl)imidazolidine-2,4-dione], at most 500 nM.
Regarding `Cc1cc2c(CN3C(=O)N(c4ccc(C5(C(F)(F)F)CC5)cc4)C(=O)C3(C)C)ccnc2[nH]1` [Compound 9, 5,5-dimethyl-1-((2-methyl-1H-pyrrolo[2,3-b]pyridin-4-yl)methyl)-3-(4-(1-(trifluoromethyl)cyclopropyl)phenyl) imidazolidine-2,4-dione], the half-maximal inhibitory concentration (IC50) in assay [1] was at most 500 nM.
On the same count and under the same terms, to `Cc1[nH]c2nccc(CN3C(=O)N(c4ccc(C5(C(F)(F)F)CC5)cc4)C(=O)C3(C)C)c2c1Cl` [Compound 10, 1-((3-chloro-2-methyl-1H-pyrrolo[2,3-b]pyridin-4-yl)methyl)-5,5-dimethyl-3-(4-(1-(trifluoromethyl)cyclopropyl)phenyl) imidazolidine-2,4-dione] belongs at most 500 nM; to `CC1(C)C(=O)N(c2ccc(C3(C(F)(F)F)CC3)cc2)C(=O)N1Cc1ccnc2[nH]c(-c3ccccc3)cc12` [Compound 11, 5,5-dimethyl-1-((2-phenyl-1H-pyrrolo[2,3-b]pyridin-4-yl)methyl)-3-(4-(1-(trifluoromethyl)cyclopropyl)phenyl) imidazolidine-2,4-dione], at most 500 nM.
The same measure, in the same setting: to `CC1(C)Cc2cc(CN3C(=O)N(c4ccc(SC(F)(F)F)cc4)C(=O)C3(C)C)cnc2N1` [Compound 14, 1-((2,2-dimethyl-2,3-dihydro-1H-pyrrolo[2,3-b]pyridin-5-yl)methyl)-5,5-dimethyl-3-(4-((trifluoromethyl)thio)phenyl)imidazolidine-2,4-dione] belongs above 10000 nM.
Take `CC1(C)C(=O)N(c2ccc(SC(F)(F)F)cc2)C(=O)N1Cc1ccnc2[nH]c(C3CC3)cc12` [Compound 15, 1-((2-cyclopropyl-1H-pyrrolo[2,3-b]pyridin-4-yl)methyl)-5,5-dimethyl-3-(4-((trifluoromethyl)thio)phenyl)imidazolidine-2,4-dione]: the IC50 in assay [1] is above 10000 nM.
Take `CC1(C)C(=O)N(c2ccc(C#N)cc2)C(=O)N1Cc1ccnc(N)c1` [Compound 80, 4-(3-((2-aminopyridin-4-yl)methyl)-4,4-dimethyl-2,5-dioxoimidazolidin-1-yl)benzonitrile]: in assay [1], the IC50 lay in the range of 500 to 2000 nM.
As for `CC1(C)C(=O)N(c2ccc(-c3nccs3)cc2)C(=O)N1Cc1ccnc(N)c1` [Compound 81, 1-((2-aminopyridin-4-yl)methyl)-5,5-dimethyl-3-(4-(thiazol-2-yl)phenyl)imidazolidine-2,4-dione], in assay [1], the IC50 was in the range of 2000 to 10000 nM.
Regarding `CC1(C)C(=O)N(c2ccc(C3(C#N)CC3)cc2)C(=O)N1Cc1ccnc(N)c1` [Compound 82, 1-(4-(3-((2-aminopyridin-4-yl)methyl)-4,4-dimethyl-2,5-dioxoimidazolidin-1-yl)phenyl)cyclopropane-1-carbonitrile], the IC50 in assay [1] was at most 500 nM.
Regarding `CC1(C)C(=O)N(c2ccc(C3(C(F)(F)F)CC3)cc2)C(=O)N1Cc1ccnc(N)c1` [Compound 83, 1-((2-aminopyridin-4-yl)methyl)-5,5-dimethyl-3-(4-(1-(trifluoromethyl)cyclopropyl)phenyl)imidazolidine-2,4-dione], the IC50 in assay [1] was at most 500 nM.
Same read-out and setting: to `CC1(C)C(=O)N(c2ccc(C3CCOC3)cc2)C(=O)N1Cc1ccnc(N)c1` (stereo not drawn) [Compound 85, 1-((2-aminopyridin-4-yl)methyl)-5,5-dimethyl-3-(4-(tetrahydrofuran-3-yl)phenyl)imidazolidine-2,4-dione] belongs 500 to 2000 nM.
In the case of `CC1(C)C(=O)N(c2ccc(C3=CCCCC3)cc2)C(=O)N1Cc1ccnc(N)c1` [Compound 86, 1-((2-aminopyridin-4-yl)methyl)-5,5-dimethyl-3-(2′,3′,4′,5′-tetrahydro-[1,1′-biphenyl]-4-yl)imidazolidine-2,4-dione], the IC50 in assay [1] is 500 to 2000 nM.
As for `CC1(C)C(=O)N(c2ccc(C3CCCCC3)cc2)C(=O)N1Cc1ccnc(N)c1` [Compound 87, 1-((2-aminopyridin-4-yl)methyl)-3-(4-cyclohexylphenyl)-5,5-dimethylimidazolidine-2,4-dione], the concentration for half-maximal inhibition (IC50) in assay [1] fell in the range of 500 to 2000 nM.
On the same count and under the same terms, the value for `CC(C)Nc1cc(CN2C(=O)N(c3ccc([Si](C)(C)C)cc3)C(=O)C2(C)C)ccn1` [Compound 89, 1-((2-(isopropylamino)pyridin-4-yl)methyl)-5,5-dimethyl-3-(4-(trimethylsilyl)phenyl)imidazolidine-2,4-dione] was at most 500 nM; that for `CC1(c2ccc(N3C(=O)N(Cc4ccnc(N)c4)C(C)(C)C3=O)cc2)COC1` [Compound 90, 1-((2-aminopyridin-4-yl)methyl)-5,5-dimethyl-3-(4-(3-methyloxetan-3-yl)phenyl)imidazolidine-2,4-dione] was 500 to 2000 nM.
Same read-out and setting: the value for `CC1(C)C(=O)N(c2ccc(C(F)(F)F)cc2)C(=O)N1Cc1ccnc(N)c1` [Compound 91, 1-((2-aminopyridin-4-yl)methyl)-5,5-dimethyl-3-(4-(trifluoromethyl)phenyl)imidazolidine-2,4-dione] was 2000 to 10000 nM; that for `CC(C)Nc1cc(CN2C(=O)N(c3ccc(I)cc3)C(=O)C2(C)C)ccn1` [Compound 92, 3-(4-iodophenyl)-1-((2-(isopropylamino)pyridin-4-yl)methyl)-5,5-dimethylimidazolidine-2,4-dione] was 500 to 2000 nM.
On to `CC1(C)C(=O)N(c2ccc(S(=O)(=O)C(F)(F)F)cc2)C(=O)N1Cc1ccnc(N[C@H]2C[C@H]2F)c1` [Compound 357, 1-((2-(((1S,2R)-2-fluorocyclopropyl)amino)pyridin-4-yl)methyl)-5,5-dimethyl-3-(4-((trifluoromethyl)sulfonyl)phenyl)imidazolidine-2,4-dione], for which the IC50 in assay [2] is at most 500 nM.
For the compound `CC(C)(C)c1ccc(N2C(=O)C(C)(C)N(Cc3ccnc4[nH]ccc34)C2=S)cc1` [Compound 407, 1-((1H-pyrrolo[2,3-b]pyridin-4-yl)methyl)-3-(4-(tert-butyl)phenyl)-5,5-dimethyl-2-thioxoimidazolidin-4-one], in assay [2], the IC50 lay within 500 to 2000 nM.
Regarding `[2H]C([2H])([2H])Nc1cc(CN2C(=O)N(c3ccc(S(=O)(=O)C(F)(F)F)cc3)C(=O)C2(C)C)ccn1` [Compound 408], in assay [2], the IC50 was at most 500 nM.
